{
  "source": "patent US20210302318A1",
  "about": "“MEANS AND METHOD FOR THE REAL-TIME ANALYSIS OF HARVESTED CROPS” (THE STATE OF ISRAEL, MINISTRY OF AGRICULTURE & RURAL …, priority 2018, published 2021)",
  "system": "insects in wheat",
  "assay": "Monitoring efficiency of Deltamethrin pest control treatment in wheat with the TV1061 sensor",
  "type": "in vivo",
  "conditions": "FIG. 13",
  "procedure": "Reference is now made to FIG. 13 showing monitoring efficiency of Deltamethrin pest control treatment in wheat. To determinate system capability to test the efficiency of the pest control treatments, infected and clean wheat were treated with Deltamethrin. Then, sensor (with TV1061 strain) was placed into the treated chambers. […] Deltamethrin is not effective against eggs inside the wheat. Therefore insects inside wheat (in eggs) will be destroyed at the time when they will hatch and walk out. […] Then decreasing in the sensor responses to the background levels may be explained by killing these insects by Deltamethrin residues on the wheat.",
  "data": [
    {"smiles": "CC1(C)[C@H](C(=O)O[C@H](C#N)c2cccc(Oc3ccccc3)c2)[C@@H]1C=C(Br)Br", "note": "[Deltamethrin]", "values": [
      {"measurement": "effectiveness against eggs inside the wheat", "setting": "eggs inside the wheat, sensor response increased on the third day after sanitization", "value": "not effective"},
      {"measurement": "pest control efficiency (insects in infected wheat)", "setting": "infected and clean wheat treated, inferred from similar TV1061 sensor responses in infected and uninfected sample", "value": "all insects were destroyed"}
    ]}
  ]
}
